Measurements from patent publication US7196110B2, “N-substituted tricyclic 3-aminopyrazoles as inhibitors for the treatment of cell proliferative disorders” (Janssen Phamaceutica N.V., priority 2002, dated 2007).

Experiments:
[1] = biological target: T1, PDGF-receptor beta enzyme comprising the tyrosine kinase domain (Homo sapiens, UniProt P09619); experiment: Inhibition of PDGF-receptor kinase activity (cell-free, PLC1 peptide, 33P Flashplate); assay type: biochemical; settings: PDGF-R kinase activity
T1 construct: from amino acid 545 to 1106 of GenBank Access NO: AAA36427
Method in brief: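 The IC50 is the inhibitor level halving kinase activity relative to inhibitor-free wells, measured as 33P captured on a streptavidin-bound biotin-PLC1 peptide. The reaction ran 60 min at 30 °C in pH 8 Tris buffer with 1 mM DTT, 5 μM ATP and the 545–1106 kinase-domain enzyme.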

c-Abl kinase = c-Abl kinase (Abelson murine leukemia virus, UniProt P00521); experiment: Inhibition of c-Abl kinase activity (cell-free, Abl peptide substrate, 33P Flashplate); assay type: biochemical; settings: IC50 for the c-Abl kinase activity
[2] = tested on: PDGF-BB-stimulated angiogenesis; experiment: Anti-angiogenesis matrigel mouse model (MM assay) supplemented with PDGF-BB, plug hemoglobin content; assay type: in vivo, mice (C57BL/6J); settings: mice
Description: Angiogenesis inhibitory activity of a compound of this invention can be measured in vivo using the matrigel mouse model (MM Assay) of angiogenesis (Passaniti et al., Laboratory Investigation, 67: 519–528, 1992). The matrigel mouse assay is a well-established method to quantify angiogenesis (see e g. Capogrossi et al., Methods in Molecular Medicine, Vascular Disease: Molecular Biology and Gene Therapy Protocols, Edited by: A. H. Baker, Humana Press Inc., Totowa, N.J., 1999). The model has been characterized extensively for its relevance as a mimic of the process of angiogenesis and has been used extensively to evaluate in vivo both potential angiogenic and anti-angiogenic activity of numerous compounds/agents. […] All procedures involving animals were conducted in an animal facility fully accredited by the American Association for Assessment and Accreditation of Laboratory Animal Care (AAALAC) and in accordance with The Guide for the Care and Use of Laboratory Animals (NIH). […]
Normal male mice (C57BL/6J) were injected subcutaneously (ventrally below rib cage at abdominal midline) with 1.0 mL of chilled matrigel supplemented with a single purified pro-angiogenic growth factor (100–500 ng/mL of either rhPDGF-BB (supra), recombinant human basic fibroblast growth factor, rhFGF-basic (R&D System Cat. No 233-FB) or recombinant human vascular endothelial growth factor, rhVEGF (PanVera Cat. No R2951) and heparin (35 U/mL). Compounds are formulated as 0.1% suspensions (1 mg/mL final concentration) in 0.5% methylcellulose. Vehicle or test compounds (8–10 mice per treatment group) were administered orally by gavage beginning two hours after matrigel injections. […] Supernatants were removed and the hemoglobin concentration in the plug extract was measured spectrophotometrically using the Drabkin's assay method (Drabkin's reagent kit 525-A; SIGMA) and read on a Beckman DU 7400 Spectrophotometer. […] Group differences were analyzed statistically using the Mann-Whitney Test, with a p-value of 0.05 or less considered statistically significant. […]

T1 sequence (P09619 545-1106): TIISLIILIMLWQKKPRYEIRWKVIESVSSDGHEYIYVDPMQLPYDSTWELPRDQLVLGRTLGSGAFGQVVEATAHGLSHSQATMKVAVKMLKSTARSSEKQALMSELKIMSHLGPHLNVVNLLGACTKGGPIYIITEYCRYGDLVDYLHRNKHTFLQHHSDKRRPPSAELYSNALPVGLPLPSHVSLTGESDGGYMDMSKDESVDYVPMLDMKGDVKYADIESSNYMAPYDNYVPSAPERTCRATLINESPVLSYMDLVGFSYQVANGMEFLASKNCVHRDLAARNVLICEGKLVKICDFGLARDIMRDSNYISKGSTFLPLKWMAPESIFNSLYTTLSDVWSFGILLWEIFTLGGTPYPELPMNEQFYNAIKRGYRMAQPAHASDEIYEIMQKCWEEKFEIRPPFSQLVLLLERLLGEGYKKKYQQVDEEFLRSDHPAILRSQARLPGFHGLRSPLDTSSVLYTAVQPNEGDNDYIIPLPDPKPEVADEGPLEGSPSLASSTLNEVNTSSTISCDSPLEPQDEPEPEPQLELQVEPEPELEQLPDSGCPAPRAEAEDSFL
Chain of c-Abl kinase (P00521 115-385): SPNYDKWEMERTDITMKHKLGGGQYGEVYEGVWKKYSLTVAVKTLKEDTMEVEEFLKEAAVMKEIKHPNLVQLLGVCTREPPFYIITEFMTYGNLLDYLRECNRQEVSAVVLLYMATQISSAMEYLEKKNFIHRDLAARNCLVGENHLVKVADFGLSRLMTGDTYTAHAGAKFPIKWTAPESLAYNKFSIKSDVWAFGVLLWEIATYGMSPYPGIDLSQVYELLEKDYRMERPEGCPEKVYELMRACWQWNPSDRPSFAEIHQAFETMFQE

## COc1cc2c(cc1OC)-c1n[nH]c(Nc3cccc(C(F)(F)F)c3)c1C2 [Compound 26, (6,7-Dimethoxy-2,4-dihydro-indeno[1,2-c]pyrazol-3-yl)-(3-trifluoromethyl-phenyl)-amine]
[1]; compound at 10 uM, read-out: Percent Inhibition @ 10 uM
  inhibition at 10 µM: 92%
[1]; read-out: IC50
  IC50: 37 nM
c-Abl kinase
  IC50: 134 nM
[2]
  % Inhibition @ 30 mg/kg po (angiogenesis, MM assay supplemented with PDGF-BB): 42%
